Source: article PMC5851644, “Development of Potent Inhibitors of Receptor Tyrosine Kinases by Ligand-Based Drug Design and Target-Biased Phenotypic Screening” (Journal of Medicinal Chemistry, 2018)
pEC50, pIC50: −log10 of the molar value.

Columns and labels:
[1] = target: AKT; assay: Kinase IC50, 33P radioisotope assay (Reaction Biology); format: biochemical; settings: recombinant kinase, 10 μM ATP
Experimental: The panel, which included the three members of the TAM family, was selected based on the selectivity profile frequently found for other AXL inhibitors.[9] Kinase inhibition studies were performed by Reaction Biology Corporation, USA, by measuring ^33P incorporation on the corresponding kinase substrate relative to DMSO.
To understand how these structural changes had affected the kinase selectivity of the new compounds, 12a–d were screened against the 12-member panel of kinases used for previous hits. As before, kinase inhibition screenings were performed using radioisotope based methods by Reaction Biology Corporation.
(§1) 6.2. Dose response cell viability assay
(§2) with 95 µl of fresh medium.
(§3) a separate 96-well intermediate plate.
(§4) containing cells. […] After 5 d, PrestoBlue™ cell
(§5) 6.3. Kinase screening assay

[2] = test system: BT474 cells (AXL–); assay: Dose response cell viability assay (PrestoBlue, day 5); format: cell-based; settings: Homo sapiens, BT-474, 120 h, PrestoBlue at day 5
[3] = test system: AXL-overexpressing mouse breast cancer cells (AXL+); assay: as above; format: cell-based; settings: PrestoBlue at day 5
[4] = test system: MOLM-13 cells; assay: as above; format: cell-based; settings: Homo sapiens, MOLM-13, 120 h; PrestoBlue at day 5
Experimental: as §1, §2, §3, §4, §5

[5] = test system: MV4-11 cells; assay: as above; format: cell-based; settings: Homo sapiens, MV4-11, 120 h; PrestoBlue at day 5
Experimental: as §1, §2, §3, §4, §5

[6] = target: T1, AXL (Homo sapiens, UniProt P30530); settings: cited from earlier work
T1 construct: purchased Reaction Biology Corporation
T1 sequence (P30530 26-894): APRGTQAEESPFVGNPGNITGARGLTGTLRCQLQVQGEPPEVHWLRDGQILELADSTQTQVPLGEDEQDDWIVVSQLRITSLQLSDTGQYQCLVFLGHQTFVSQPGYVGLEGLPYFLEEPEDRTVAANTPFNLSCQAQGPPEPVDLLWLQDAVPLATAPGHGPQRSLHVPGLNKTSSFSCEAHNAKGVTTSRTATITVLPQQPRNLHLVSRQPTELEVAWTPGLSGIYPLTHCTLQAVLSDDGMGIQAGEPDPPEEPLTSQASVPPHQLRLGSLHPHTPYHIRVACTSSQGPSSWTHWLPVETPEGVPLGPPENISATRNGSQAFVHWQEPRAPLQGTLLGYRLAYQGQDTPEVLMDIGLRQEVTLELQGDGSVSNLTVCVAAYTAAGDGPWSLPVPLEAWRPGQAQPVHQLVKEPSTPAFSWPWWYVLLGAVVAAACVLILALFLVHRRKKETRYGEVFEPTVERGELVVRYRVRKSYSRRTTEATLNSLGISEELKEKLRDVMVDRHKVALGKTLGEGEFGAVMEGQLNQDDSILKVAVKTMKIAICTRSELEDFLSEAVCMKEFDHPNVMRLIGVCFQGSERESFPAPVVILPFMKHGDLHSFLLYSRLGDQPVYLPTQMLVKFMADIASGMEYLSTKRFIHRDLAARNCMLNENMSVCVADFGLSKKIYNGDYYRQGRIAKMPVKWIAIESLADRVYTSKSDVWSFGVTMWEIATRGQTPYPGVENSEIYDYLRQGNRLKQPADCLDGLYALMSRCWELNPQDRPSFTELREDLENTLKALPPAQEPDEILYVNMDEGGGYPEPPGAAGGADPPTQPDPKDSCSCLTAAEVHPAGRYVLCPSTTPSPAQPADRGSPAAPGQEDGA

| SMILES | pIC50 [1] | pEC50 [2] | pEC50 ([3]; Mus musculus, 120 h) | further results |
| --- | --- | --- | --- | --- |
| Nc1nc(Nc2ccc3c(c2)CC[C@@H](N2CCCC2)CC3)nn1-c1cc2c(nn1)-c1ccccc1CCC2 [BGB324, reference compound] | < 5.00 | – | – | – |
| CNc1ncc2c(-c3ccc(OC)cc3)nn(CC3CCCC3)c2n1 [Compound 7a] | – | 4.62 | 4.85 | – |
| CNc1ncc2c(-c3ccc(OC)c(OC)c3)nn(CC3CCCC3)c2n1 [Compound 7b] | – | 4.59 | 4.85 | – |
| CNc1ncc2c(-c3cccc(C(N)=O)c3)nn(CC3CCCC3)c2n1 [Compound 7e] | – | 4.61 | 4.79 | – |
| CNc1ncc2c(-c3ccc(N4CCNCC4)nc3)nn(CC3CCCC3)c2n1 [Compound 7f] | < 5.00 | – | – | – |
| CNc1ncc2c(-c3ccc(N4CCNCC4)nc3)nn(CC3OCCO3)c2n1 [Compound 7g] | < 5.00 | 4.69 | – | pEC50 [3]: 4.99 |
| CNc1ncc2c(-c3ccc(OC)cc3)nn(CC3OCCO3)c2n1 [Compound 7h] | < 5.00 | 4.88 | – | pEC50 [3]: 5.30 |
| CNc1ncc2c(-c3ccc(F)cc3)nn(CC3OCCO3)c2n1 [Compound 7i] | – | 4.22 | 4.18 | – |
| CNc1ncc2c(-c3ccc(N4CCNCC4)nc3)nn(Cc3cn(Cc4ccccc4)nn3)c2n1 [Compound 10a] | < 5.00 | 5.44 | 5.83 | – |
| CNc1ncc2c(-c3ccc(N4CCNCC4)nc3)nn(Cc3cn(C4CCCC4O)nn3)c2n1 (centres unmarked) [Compound 10b] | – | 4.74 | 4.47 | – |
| CNc1ncc2c(-c3ccc(N4CCNCC4)nc3)nn(Cc3cn(-c4ccsc4C(=O)OC)nn3)c2n1 [Compound 10d] | < 5.00 | 5.19 | 5.74 | – |
| CNc1ncc2c(-c3ccc(N4CCNCC4)nc3)nn(Cc3cn(-c4ccc(OC)cc4)nn3)c2n1 [Compound 10f] | – | 4.78 | 5.43 | – |
| CNc1ncc2c(-c3ccc(N4CCNCC4)cc3)nn(Cc3cn(Cc4ccccc4)nn3)c2n1 [Compound 12a] | < 5.00 | 4.49 | 4.40 | – |
| CNc1ncc2c(-c3ccc(N4CCN(C)CC4)nc3)nn(Cc3cn(Cc4ccccc4)nn3)c2n1 [Compound 12b] | < 5.00 | 4.59 | 5.16 | – |
| CCN1CCN(c2ccc(-c3nn(Cc4cn(Cc5ccccc5)nn4)c4nc(NC)ncc34)cn2)CC1 [Compound 12c] | – | < 4.00 | < 4.00 | – |
| CNc1ncc2c(-c3ccc(N4CCN(C(=O)C(C)(C)C)CC4)nc3)nn(Cc3cn(Cc4ccccc4)nn3)c2n1 [Compound 12d] | < 5.00 | 4.91 | 5.04 | – |
| CNc1ccc(-c2nn(Cc3cn(Cc4ccccc4)nn3)c3nc(NC)ncc23)cn1 [Compound 12f] | – | < 4.00 | < 4.00 | EC50 (AXL+ cells) [3]: completely inactive |
| CNc1ncc2c(-c3ccc(N4CCN(C)CC4)nc3)nn(CC3CCCC3)c2n1 [Compound 13b] | < 5.00 | – | – | pEC50 [4]: 7.40; pEC50 [5]: 6.31 |
| CCN1CCN(c2ccc(-c3nn(CC4CCCC4)c4nc(NC)ncc34)cn2)CC1 [Compound 13c] | < 5.00 | – | – | pEC50 [4]: 6.03; pEC50 [5]: 5.46 |
| CNc1ncc2c(-c3ccc(N4CCN(C(=O)C(C)(C)C)CC4)nc3)nn(CC3CCCC3)c2n1 [Compound 13d] | < 5.00 | – | – | pEC50 [4]: 5.89; pEC50 [5]: 5.84 |
| COc1cc2c(Oc3ccc(NC(=O)C4(C(=O)Nc5ccc(F)cc5)CC4)cc3F)ccnc2cc1OCCCN1CCOCC1 [foretinib] | – | – | – | reported to inhibit AXL at [6]: 11 nM |
